Reference: paper PMC7617869, “Molecular glues that inhibit deubiquitylase activity and inflammatory signaling” (Nature Structural & Molecular Biology, 2025)
Where “and” joins values, the source holds several entries; their conditions need not be identical. Equal values may be shown once. One block for each compound: values may come before it.

How the values were obtained:
[1] = biological target: T1, BRISC (Homo sapiens, UniProt P46736+Q15018+Q9NXR7); experiment: BRISC DUB activity assay (IQF K63-linked diubiquitin); format: biochemical; settings: for Mean: Fig. 1d; for Normalised V0: replicate columns
T1 construct: made in house; host or cells: Spodoptera frugiperda (Sf9) insect cells, MultiBac
Experimental: IQF assays were performed in DUB reaction buffer containing 50 mM HEPES–NaOH pH 7.0, 100 mM NaCl, 0.1 mg ml^−1 BSA, 1 mM DTT and 0.03% v/v Brij-35. […] The final concentration of BRISC WT, all BRISC mutants, HsBRISCΔLoop, MmBRISC and DrBRISCΔNΔC was 1 nM. Other enzymes were tested at the following concentrations: 5 nM ARISC (FL), 10 nM CfBRISCΔNΔC, 250 nM AMSH* (ref. [43]), 500 nM USP2 and 1 μM trypsin (Sigma, 9002-07-7). For Michaelis–Menten experiments, 1 nM BRISC with 0–1 μM IQF K63-linked diubiquitin substrate was used. Michaelis–Menten analyses and Lineweaver–Burk plots were calculated using GraphPad Prism (version 9.0).
To assess enzymatic activity, BRISC complexes were diluted to concentrations between 1 nM and 50 nM. […] Then, 20-μl enzyme reactions were carried out in 384-well black flat-bottom low-flange plates (Corning, 35373). DUB activity was measured using IQF K63-linked diubiquitin (LifeSensors, DU6303) at 50 nM. Cleaved diubiquitin was monitored by measuring fluorescence intensity (excitation, 544 nm; emission, 575 nm; dichroic mirror, 560 nm). Fluorescence intensity was measured every minute for 30 min at 30 °C. Fluorescence intensity units were plotted against time to generate a linear reaction progress curve, where the initial velocity (V0) corresponds to the gradient of the curve (typically achieved within 15 min). IC50 values were calculated using the GraphPad Prism (version 9.0) built-in dose–response equation for inhibitor concentration versus response (variable slope).

[2] = biological target: T2, BRISC–SHMT2 interaction (Homo sapiens, UniProt P46736+Q15018+Q9NXR7); experiment: Dianthus spectral shift binding assay (BRISC–SHMT2); settings: labelled BRISC preincubated with 100 μM compound
T2 construct: His (tag of the complex); made in house
Experimental: Site-specific labeling of His-tagged BRISC was performed using a RED-Tris-NTA second-generation labeling kit (NanoTemper Technologies) in buffer containing 25 mM HEPES pH 7.5, 150 mM NaCl, 1 mM DTT and 0.005% Tween-20. First, 100 nM His–BRISC was incubated with 25 nM RED-Tris-NTA dye and prepared according to the Nanotemper protocol. […] The reactions were carried out in 384-well Dianthus microplates (Nanotemper Technologies) with a 20-μl reaction volume. The measurements were performed using autoexcitation on a Dianthus NT.23 instrument at 25 °C using DI.Control software (version 2.1.1; Nanotemper Technologies). Data were analyzed using DI.Screening Analysis software (version 2.1.1; Nanotemper Technologies) and plotted in GraphPad Prism (version 10.1.0). KD values were determined using a GraphPad Prism built-in equation for total binding (one site).

[3] = biological target: T3, BRISC (FL) (Homo sapiens, UniProt P46736+Q15018+Q9NXR7); experiment: In-gel deubiquitylation assay, TAMRA-labeled K63-tetraubiquitin, BRISC; format: biochemical; settings: 10 μM or 100 μM inhibitor
T3 construct: full-length BRISC (FL), ARISC (FL); made in house; host or cells: Spodoptera frugiperda Sf9 insect cells (MultiBac)
Experimental: The inhibitor capzimin (Merck) was diluted in 1 mM DTT and incubated for 30 min at room temperature to reduce disulfide bonds required for inhibitor activity. […] DUBs were incubated with 750 nM TAMRA-labeled K63-tetraubiquitin (LifeSensors, SI6304T) for 10 min at 30 °C. Reactions were quenched by adding 2.5 μl of 4× SDS–PAGE loading dye (240 mM Tris-HCl pH 6.8, 40% v/v glycerol, 8% w/v SDS, 0.04% w/v bromophenol blue and 5% v/v β-mercaptoethanol). The samples were resolved on 4–12% NuPAGE Bis–Tris gels (Thermo Fisher Scientific). Gels were scanned using an iBright FL 1500 (Thermo Fisher Scientific) (excitation, 515–545 nm; emission, 568–617 nm; exposure, 500 ms).

[4] = tested on: IFNAR1 surface levels in THP-1 cells; experiment: THP-1 IFNAR1 surface levels (FACS); format: cell-based, human
Experimental: (§1) THP-1 in vitro experiments
(§2) THP-1-DualTM cells (InvivoGen), derived from a human monocytic cell line, isolated from a patient with acute monocytic leukaemia, were cultured as per manufacturer’s guidance. Cells were seeded at 1x10^6 cells/mL in RPMI1640 media containing 10% fetal bovine serum (FBS), 1% penicillin-streptomycin (PS) (Gibco Laboratories) with DMSO (0.1%) (control) or in media containing JMS-175- […]
(§3) ng/mL) (Merck Life Science), ODN 2216 (1 µM) (Miltenyi Biotec), or Poly:IC (1 µg/mL) (InvivoGen).
(§4) Tofacitinib (Cambridge Biosciences) at 0.4 µM was used for comparison against a known JAK inhibitor.
(§5) Cells were centrifuged at 300 g for 5 minutes. Supernatant was removed and subjected to simultaneous study of the NF -κB pathway, by monitoring the activity of secreted alkaline phosphatase reporter (SEAP), and the IRF pathway, by assessing the activity o f a secreted Lucia luciferase using QUANTI - Blue ™ Solution and QUANTI -Luc™ 4 Lucia/Gaussia (InvivoGen), respectively, as per manufacturer’s instructions. Pelleted cells were used for FACS analysis using IFNα/β R1 APC-conjugated antibody or isotype control (Biotechne, FAB245A and IC002A), or unstained staining procedure with and without Zombie GreenTM (Biolegend). Samples were analysed using CytoFlex LX (Beckman) (50,000 live cells per condition). Median fluorescence intensity for APC channel gated on single cell live cells was analysed and compared as a percentage to control (no stimulation condition). […]

[5] = tested on: THP-1 cells; experiment: THP-1 live cell percentage; format: cell-based; settings: male, human, 16 h, 0.4 µM
Experimental: as §1, §2, §3, §4, §5

[6] = tested on: ISRE in THP-1 cells (TLR3 agonist polyI:C); experiment: THP-1 ISRE luciferase reporter, polyI:C stimulation; format: cell-based, human; settings: polyI:C 1 µg/mL, 0.4 μM, 16 h
Experimental: as §1, §2, §3, §4, §5

[7] = tested on: ISRE in THP-1 cells (TLR9 agonist ODN 2216); experiment: THP-1 ISRE luciferase reporter, ODN 2216 stimulation; format: cell-based, human; settings: ODN 2216 1 µM, 0.4 μM, 16 h
Experimental: as §1, §2, §3, §4, §5

[8] = tested on: NF-κB pathway in THP-1 cells; experiment: THP-1 NF-κB pathway SEAP reporter, lipopolysaccharide stimulation; format: cell-based, human; settings: LPS + compound, three replicates
Experimental: as §1, §2, §3, §4, §5

[9] = tested on: IFN-stimulated response elements (ISRE) in THP-1 cells; experiment: THP-1 ISRE luciferase reporter, IFNα2 stimulation; format: cell-based, human
Experimental: as §1, §2, §3, §4, §5

Mean ([1]; log[compound (μM)] 0.1931): 1.0068
Mean ([1]; log[compound (μM)] 0.4942): 1.0306
Mean ([1]; log[compound (μM)] 0.7959): 0.9990
Mean ([1]; log[compound (μM)] 1.0969): 1.0116
Mean ([1]; log[compound (μM)] 1.3979): 0.9713
Mean ([1]; log[compound (μM)] 1.6990): 1.1388
Mean ([1]; log[compound (μM)] 2.0000): 1.0728
Mean ([1]; log[compound (μM)] 2.3010): 1.1033
Mean ([1]; log[compound (μM)] -0.1079): 1.1343
Mean ([1]; log[compound (μM)] -0.4089): 1.1217
Mean ([1]; log[compound (μM)] -0.7212): 1.1333
Mean ([1]; log[compound (μM)] -1.7212): 1.0000
inhibition of BRISC DUB activity (in words) ([1]; IQF diubiquitin assay): did not inhibit
Normalised V0 ([1]; [Inhibitor] 0.013 μM): 0.9578 and 1.102 and 0.7959 and 1.072
Normalised V0 ([1]; [Inhibitor] 0.02 μM): 0.8824 and 1.105
Normalised V0 ([1]; [Inhibitor] 0.0399999 μM): 1.048 and 1.358
Normalised V0 ([1]; [Inhibitor] 0.0599997 μM): 0.9169 and 1.23
Normalised V0 ([1]; [Inhibitor] 0.0799994 μM): 1.0394 and 1.173
Normalised V0 ([1]; [Inhibitor] 0.119998 μM): 0.856 and 0.7489
Normalised V0 ([1]; [Inhibitor] 0.199996 μM): 0.9661 and 1.115
Normalised V0 ([1]; [Inhibitor] 0.499975 μM): 0.9387 and 1.144
Normalised V0 ([1]; [Inhibitor] 0.799936 μM): 0.8532 and 1.098
Normalised V0 ([1]; [Inhibitor] 1.25984 μM): 0.9637 and 1.032
Normalised V0 ([1]; [Inhibitor] 1.9996 μM): 0.7701 and 1.137
Normalised V0 ([1]; [Inhibitor] 3.159 μM): 0.887 and 1.055
Normalised V0 ([1]; [Inhibitor] 5.19739 μM): 0.7796 and 1.219
Normalised V0 ([1]; [Inhibitor] 7.99364 μM): 0.912 and 1.161
Normalised V0 ([1]; [Inhibitor] 12.7839 μM): 0.972 and 1.143
Normalised V0 ([1]; [Inhibitor] 19.96 μM): 0.9311 and 1.165
Normalised V0 ([1]; [Inhibitor] 31.4999 μM): 0.8747 and 1.168
Normalised V0 ([1]; [Inhibitor] 50.147 μM): 0.908 and 1.016
Normalised V0 ([1]; [Inhibitor] 79.7601 μM): 0.7753 and 1.257
Normalised V0 ([1]; [Inhibitor] 125.99 μM): 0.9194 and 0.97
Normalised V0 ([1]; [Inhibitor] 199.922 μM): 0.8606 and 0.9293
Ratio 670 nm/650 nm ([2]; SHMT2 0.00140381 μM): 1.077 and 1.081 and 1.064
Ratio 670 nm/650 nm ([2]; SHMT2 0.00280762 μM): 1.075 and 1.068 and 1.082
Ratio 670 nm/650 nm ([2]; SHMT2 0.00561523 μM): 1.073 and 1.081 and 1.075
Ratio 670 nm/650 nm ([2]; SHMT2 0.0112305 μM): 1.064 and 1.071 and 1.065
Ratio 670 nm/650 nm ([2]; SHMT2 0.0224609 μM): 1.049 and 1.052
Ratio 670 nm/650 nm ([2]; SHMT2 0.0449219 μM): 1.026 and 1.035 and 1.037
Ratio 670 nm/650 nm ([2]; SHMT2 0.0898438 μM): 1.012 and 1.013 and 1.006
Ratio 670 nm/650 nm ([2]; SHMT2 0.179688 μM): 0.993 and 0.976 and 0.943
Ratio 670 nm/650 nm ([2]; SHMT2 0.359375 μM): 0.948 and 0.935 and 0.925
Ratio 670 nm/650 nm ([2]; SHMT2 0.71875 μM): 0.903 and 0.887 and 0.836
Ratio 670 nm/650 nm ([2]; SHMT2 1.4375 μM): 0.863 and 0.84 and 0.841
Ratio 670 nm/650 nm ([2]; SHMT2 2.875 μM): 0.823 and 0.805 and 0.806
Ratio 670 nm/650 nm ([2]; SHMT2 5.75 μM): 0.792 and 0.756 and 0.785
Ratio 670 nm/650 nm ([2]; SHMT2 11.5 μM): 0.776 and 0.777 and 0.775
Ratio 670 nm/650 nm ([2]; SHMT2 23 μM): 0.77 and 0.773 and 0.777
Ratio 670 nm/650 nm ([2]; SHMT2 46 μM): 0.768 and 0.78 and 0.777
inhibition of BRISC cleavage of K63-linked tetraubiquitin [3]: did not inhibit
SMILES: O=C(NC1CCN(C(=O)c2c(Cl)cccc2Cl)CC1)c1n[nH]cc1NC(=O)c1c(Cl)cccc1Cl [AP-5-144]

percentage of live cells [5]: 98.18%
SMILES: C[C@@H]1CCN(C(=O)CC#N)C[C@@H]1N(C)c1ncnc2[nH]ccc12 [tofacitinib, reference compound]
IFNAR1 surface levels (Fig. 5h) ([4]; IFN + compound, No IFN = 100): 59.2689 and 88.3889 and 79.9066
IFNAR1 surface levels ([4]; THP-1, hIFNα2 25 ng/ml, 0.4 μM, 16 h): no significant reduction
ISRE luciferase signal in THP-1 supernatant [6]: not reduced
ISRE luciferase signal in THP-1 supernatant ([6]; listed as Tofacitinib): 199.667 and 316.333 and 317.333
ISRE luciferase signal in THP-1 supernatant [7]: not reduced
ISRE luciferase signal in THP-1 supernatant ([7]; listed as Tofacitinib): 198.333 and 276 and 283.333
NF-κB SEAP reporter signal [8]: 1.232 and 1.181 and 1.209
ISRE luciferase reporter signal (Fig. 5a) ([9]; IFN + compound, replicate values): 1776.67 and 1732 and 1959.33 and 2178.33
ISRE relative expression ([9]; hIFNα2 25 ng/ml, 0.4 μM, 16 h): potent effect
